How the values were obtained:
[1] = administered to a human; estimated; cited from earlier work
[2] = after transformation into the parent drug; cited from earlier work
[3] = duration of action; format: in vivo; settings: estimated; ratio to 5-methyl-7-methoxy-isoflavone
Description: One limitation of known prodrugs is that, once they are transformed into the parent drug, they are broken down in the body, and particularly in the liver. This breakdown reduces in vivo concentration and bioavailability of the drug. This breakdown effect has been observed with 5-methyl-7-methoxy-isoflavone. In the presently preferred embodiments of the invention, however, the compounds are less prone to such breakdown in the body relative to many known prodrug-type compounds. This in many instances is attributable to the alkylcarbonate ester promoiety, which makes the compound more resistant to hydrolysis and other reactions that inhibit or destroy them in the body. In vivo concentrations thus can be maintained more readily, and bioavailability of the parent isoflavone can be improved. It has been estimated that the duration of action for 5-methyl-7-ethylcarbonate-isoflavone may be twice that of 5-methyl-7-methoxy-isoflavone.

COc1cc(C)c2c(=O)c(-c3ccccc3)coc2c1 [5-methyl-7-methoxy-isoflavone]
proportion of administered prodrug converted in vivo to 7-hydroxy-5-methyl-isoflavone [1]: approximately 50% | breakdown effect in the body (liver) reducing in vivo concentration and bioavailability [2]: observed

CCOC(=O)Oc1cc(C)c2c(=O)c(-c3ccccc3)coc2c1 [5-methyl-7-ethylcarbonate-isoflavone]
duration of action relative to 5-methyl-7-methoxy-isoflavone [3]: twice

Source: patent publication US7625943B2, “5-alkyl-7-alkylcarbonate-isoflavone ester and related method” (priority 2004, dated 2009)
